Test results published in paper PMC10510511, “Dose–Response Activity-Based DNA-Encoded Library Screening” (ACS Medicinal Chemistry Letters, 2023).
“Also recorded” adds a separate entry of the source.

Assays:
factor Xa (FXa) [1] = molecular target: T1, factor Xa (FXa) (Homo sapiens, UniProt P00742); assay: FXa dose-response activity-based DEL screening in droplets, hit replicate count by sequencing; format: biochemical; conditions: for k-class (30% UV): FXa screen at 30% UV intensity; for k-class (100% UV): FXa screen at 100% UV intensity
T1 construct: purchased R&D Systems, Minneapolis, MN
T1 sequence (P00742 235-488 limits assumed): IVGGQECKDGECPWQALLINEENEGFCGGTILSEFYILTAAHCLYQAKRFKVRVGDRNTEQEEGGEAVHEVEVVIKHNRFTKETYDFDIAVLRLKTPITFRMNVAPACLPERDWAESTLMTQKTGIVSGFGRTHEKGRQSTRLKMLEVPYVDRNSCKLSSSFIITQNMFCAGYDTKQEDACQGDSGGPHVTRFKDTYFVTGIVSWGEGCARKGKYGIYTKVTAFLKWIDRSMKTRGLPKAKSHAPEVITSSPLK
T1 sequence (P00742 41-179 partner limits assumed): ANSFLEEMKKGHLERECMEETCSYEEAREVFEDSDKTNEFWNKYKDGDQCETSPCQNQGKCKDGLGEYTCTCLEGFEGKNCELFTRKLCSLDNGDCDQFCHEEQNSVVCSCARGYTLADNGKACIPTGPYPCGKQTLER
Experimental: FXa Library Screening in Droplets
DEL screening for FXa inhibitors was performed in droplets as previously described,4,8 with modifications. After ligating the closing primer, the library was prepared for droplet screening by exchanging into assay buffer, filtering through a 20 µm Celtrics filter, filter-ing through a previously described microfluidic device,4 and counting a dilution with a hemocytometer to determine bead density. AQ1 input contained fluorogenic FXa peptide substrate (6 µM), internal standard 5(6)-TAMRA (2 µM), DEL beads (∼1500 beads/µL), and a PTFE-encapsulated magnet (to agitate beads periodically; 3 mm dia., V&P Scientific, Inc., San Diego, CA) in FXa droplet assay buffer. AQ2 contained FXa (3.8 ng/µL,∼90 nM) in FXa droplet assay buffer.
OIL2 and OIL3 were neat Novec™ 7500.
UV dosing was delivered through a custom fiber optic cable7 controlled through Labview software (National Instruments, Austin, TX). Slight modifications were made to the pre-viously described confocal LIF detection system and LabVIEW code. 3,4 Briefly, droplet […]
(§1) fluorescence emission was detected by photon counting PMTs (H7828, Hamamatsu, Mid-dlesex, NJ) using a custom two-channel (520 and 570 nm) confocal LIF microscope with […]
(§2) code written in house collected signal data and determines droplet sorting decisions. The […]
(§3) Instruments), and binned into packets of counts (∆t = 0.1 ms). Median-filter smoothing (window width = 3) was applied to the signal in real-time. Droplet signal regions were identified by the 570-nm channel signal (countsn> 200) and 520-nm channel signal maxima (max = countsn−1 when countsn< countsn−1).
A dynamic sorting threshold was calculated in real-time to identify “hit droplets” with reduced 520-nm channel fluorescence. The dynamic threshold was calculated as µ - 4.5σ, where µ andσ were the mean and standard deviation of the last 1000 droplets’ fluorescence values, respectively. Hit droplets were excluded from the fluorescence values used to calculate population mean and standard deviation. […]
(§4) DNA sequence pattern matching, aggregation by bead barcode, and unique molecular identifier (UMI) filtering were previously described. 3–5 Sequences with a UMI count≤ 5 were discarded. UV doses associated with hit sequences were filtered using the sequencing barcode (Table S5) introduced during library amplification. Of the remaining sequences, compound replicates (k class) were determined by taking the sum of the sequences having the same synthesis encoding region but distinct bead barcodes.

factor Xa (FXa) [2] = molecular target: T1, factor Xa (FXa); assay: Biochemical assay for FXa hit validation (fluorogenic 5-FAM/QXL-520 substrate, microplate); conditions: for Maximum inhibition (%) / IC50: FXa; for IC50: 30 min preincubation, 25 °C, 4 parameter logistic fit
Experimental: Biochemical Assay for FXa Hit Validation […]
plate assay buffer). Compound dilutions (2.5 µL) were added to FXa (90 nM, 5 µL) in 384-well black-bottom microplates (Corning Scientific, Corning, NY) in triplicate and […]
(§5) incubated (30 min, 25 °C). […]
added and reaction progress was monitored immediately (λex = 483 nm,λem = 530 nm, 25 °C, CLARIOStar Plus, BMG LABTECH, Ortenberg, Germany). The percent activity was taken as the slope of the fluorescence increase over time (1–10 min) relative to that of a vehicle control. IC50 values were determined by fitting the data to a 4 parameter logistic model using nonlinear regression. […]

autotaxin (ATX) [3] = molecular target: T2, autotaxin (ATX) (Homo sapiens, UniProt Q13822); assay: Biochemical assay for ATX hit validation (FS-3 substrate, microplate); conditions: for Maximum inhibition (%) / IC50: ATX; for IC50: relative IC50, 30 min preincubation, 25 °C, 4 parameter logistic fit
T2 construct: purchased Echelon Biosciences, Salt Lake City, UT
Experimental: (§6) 384-well black-bottom microplates (Corning Scientific, Corning, NY) in triplicate and […]
as §5
Biochemical Assay for ATX Hit Validation […]
plate assay buffer). Compound dilutions (2.5 µL) were added to ATX (100 nM, 5 µL) in 384-well black-bottom microplates (Corning Scientific, Corning, NY) in triplicate and incubated (30 min, 25 °C). FS-3 (20 µM, 2.5 µL) was added and reaction progress was monitored immediately (λex = 483 nm, λem = 530 nm, 25 °C, CLARIOStar Plus, BMG LABTECH). The percent activity was taken as the slope of the fluorescence increase over […]
time (1–10 min) relative to that of a vehicle control. IC50 values were determined by fitting the data to a 4 parameter logistic model using nonlinear regression. […]
Vmax = [S]KM(1 + [I]Ki ) + [S]. […]
v = Vmax(1 + [I]/Ki)[S]. (3)
Rearranging to express relative velocity (v/Vmax):
Vmax = [S](KM + [S])(1 + [I]/Ki). (4)

autotaxin (ATX) [4] = molecular target: T2, autotaxin (ATX); assay: ATX dose-response activity-based DEL screening in droplets, hit replicate count by sequencing; format: biochemical; conditions: for k-class (20% UV): ATX screen at 20% UV intensity; for k-class (100% UV): ATX screen at 100% UV intensity
Text: as §1, §2, §3
A dynamic sorting threshold was calculated in real-time to identify “hit droplets” with reduced 520-nm channel fluorescence. The dynamic threshold was calculated as µ - 4.5σ, where µ andσ were the mean and standard deviation of the last 1000 droplets’ fluorescence values, respectively. Hit droplets were excluded from the fluorescence values used to calculate population mean and standard deviation. When a hit droplet was detected (droplet fluorescence< µ – 4.5σ counts), LabVIEW output a TTL pulse from the DAQ […]
triggering a square wave pulse output (0–7.5 V, 10 kHz, 300 cycles) that was amplified […]
NY) and conducted through luer-lok needle-fitted and microbore tygon tubing filled with liquid metal (gallium:indium:tin alloy 62:22:16 (w%), Alfa Aeser) into a microfabricated […]
ATX Library Screening in Droplets
The ATX droplet screening assay was performed similarly to the FXa assay, but with ATX assay reagents. This was a modification of previously described protocols.4 AQ1 input contained fluorogenic ATX substrate FS-3 9 (10 µM), internal standard 5(6)-TAMRA (5 µM), […]
excised, eluted (C&S buffer, 100 µL, 100 rpm, ON), and pooled for Illumina sequencing at the UCI genomics high throughput facility (MiSeq v2 Nano or MiSeq v2 Micro, paired end).
as §4, with “barcodes. […]” for “barcodes.”
as §6, §5

FXa = test system: FXa; design: method as in PMID 16161994; conditions: cited from earlier work

| SMILES | k-class (30% UV) (factor Xa (FXa) [1]) | k-class (100% UV) (factor Xa (FXa) [1]) | Maximum inhibition (%) (factor Xa (FXa) [2]) | IC50 (factor Xa (FXa) [2]) [µM] | FXa inhibition (in words) (factor Xa (FXa) [2]; at 100 μM) | ATX inhibition (in words) (autotaxin (ATX) [3]) | Maximum inhibition (%) (autotaxin (ATX) [3]) | IC50 (autotaxin (ATX) [3]) [µM] | k-class (20% UV) (autotaxin (ATX) [4]) | k-class (100% UV) (autotaxin (ATX) [4]) | IC50 (FXa) [µM] |
| --- | --- | --- | --- | --- | --- | --- | --- | --- | --- | --- | --- |
| NC(=O)[C@@H](Cc1csc2ccccc12)NC(=O)c1ccc(N2CCCC2=O)cc1 [Hit 1a] | 14 | 4 | 93 | 4.2 ± 0.1 | – | – | – | – | – | – | – |
| NC(=O)[C@@H](Cc1csc2ccccc12)NC(=O)c1ccc(N2CCOCC2)cc1 [Hit 1b] | 9 | 4 | 85 | 7.4 ± 0.3 | – | – | – | – | – | – | – |
| NC(=O)[C@@H](Cc1c[nH]c2ccccc12)NC(=O)c1ccc(N2CCCC2=O)cc1 [Hit 2a] | 9 | 6 | 95 | 9 ± 0.3 | – | – | – | – | – | – | – |
| NC(=O)[C@@H]1CCCN1C1CCN(C(=O)c2cn3cc(Cl)ccc3n2)CC1 [Hit 3a] | 8 | 9 | 28 | > 300 | weakly inhibited FXa | – | – | – | – | – | – |
| NC(=O)c1cccc(CNC(=O)c2ccc(Cl)s2)c1 [Hit 5a] | 10 | 8 | 58 | 19 ± 2 | – | – | – | – | – | – | – |
| NC(=O)c1cccc(CNC(=O)c2csc(Cc3ccccc3)n2)c1 [Hit 12a] | – | – | – | – | – | least potent | 94 | 28 ± 14 | 4 | 8 | – |
| NC(=O)c1cccc(CNC(=O)[C@@H]2C[C@H]2c2ccccc2)c1 [Hit 12b] | – | – | – | – | – | false positive; also recorded: did not inhibit ATX | – | > 300 | 2 | 3 | – |
| Cc1cccn2cc(C(=O)NC3c4ccccc4CCc4cc(OCC(N)=O)ccc43)nc12 (stereo not drawn) [Hit 13a] | – | – | – | – | – | – | 57 | 6 ± 1 | 0 | 3 | – |
| NC(=O)COc1ccc2c(c1)CCc1ccccc1C2NC(=O)c1ccc(Cl)o1 (stereo not drawn) [Hit 13b] | – | – | – | – | – | – | 26 | 6 ± 3 | 0 | 3 | – |
| NC(=O)Cn1c(=O)n(C2CCN(C(=O)c3ccc(Cl)cc3C(F)(F)F)CC2)c2ccccc21 [Hit 16a] | – | – | – | – | – | inhibited ATX fully | 91 | 7 ± 2 | 6 | 4 | – |
| NC(=O)Cn1c(=O)n(C2CCN(C(=O)c3cnn(CC4CCCCC4)c3)CC2)c2ccccc21 [Hit 16b] | – | – | – | – | – | inhibited ATX fully | 96 | 13 ± 2 | 4 | 2 | – |
| NC(=O)c1ccc2c(c1)CCN(C(=O)c1cnn(CC3CCCCC3)c1)C2 [Hit 17a] | – | – | – | – | – | inhibited ATX fully | 91 | 1 ± 0.3 | 7 | 6 | – |
